We go through 2 compounds from patent US10149472B2, “Chitin oligomers for use in promoting non-leguminous plant growth and development” (Wisconsin Alumni Research Foundation, priority 2015, dated 2018).

Molecules are shown by their SMILES.

One assay concerns corn (maize). Briefly: Seed treatment of corn in pots. Type of assay: in vivo. To be noted: seed coating 125 μl of 10^−6 M, 2 weeks after planting. The procedure: Five grams of corn (maize) seeds were added to three separate 50 ml tubes. A water solution containing 0.5% ethanol was added to the control tube, 125 μl of 10^−6 M CO4 solution was added to the CO4 tube, and 125 μl of 10^−6 M CO8 solution was added to the CO8 tube. Each tube was then shaken to coat the seeds. Seeds were potted immediately following treatment into moistened SUNGRO® potting mix in 4×6×6 cm pots. Plants were watered by pouring water into the tray containing the pots up to about ¾ inch high. After sowing the seeds, the pots were randomly distributed (16 pots per treatment) throughout the tray and placed underneath continuous light at room temperature for 1 week. Liquid Fahräeus medium (plant fertilizer solution; see above) was applied every 2 days or when necessary. After a week, the pots were placed underneath 10 h light and 14 h dark cycle at room temperature for 1 week. After 1 week underneath 10 h light and 14 h dark cycle (2 weeks after planting), the plants were carefully removed from the pots, and as much soil as possible was shaken off. The remaining soil was removed by submerging the root system into a beaker of water. The number of primary roots (PR), lateral roots (LR), root system length (RSL) and dry weight (DW) was then measured for all plants.

The subject of assay [1] is Hard Red Spring Wheat (HRSW). Briefly: Seed treatment of hard red spring wheat in vitro (plates). The settings on record: seed coating 125 μl of 10^−6 M; for Number of Lateral Roots / Number of Primary Roots: 4-5 days after transfer. Type of assay: in vivo. How it is done: Hard red spring wheat seeds were surface sterilized using ethanol and bleach. The sterilized seeds were then divided among 4 treatment groups of 5 grams each into 50 ml falcon tubes. To the control tube, 0.5% ethanol in water was added. To the CO4 tube, 125 μl of 10^−6 M CO4 solution was added. To the CO8 tube, 125 μl of 10^−6 M CO8 solution was added. To the “Consensus” tube, 125 μl of 10^−6 M solution of chitosan (CONSENSUS® chitosan; Loveland Products, Inc., Loveland, Colo.) was added. Each tube was then shaken to coat the seeds. The coated seeds were then placed on sterile Petri dishes in a hood and were left to dry overnight in the hood.
The seeds were then germinated on damp germination paper in sterile Petri dishes for 4 days. The resulting seedlings were transferred to Fahräeus medium plates containing damp germination paper, and the plates were wrapped in Parafilm®. Fahräeus medium contains 0.5 m M MgSO4, 0.7 mM KH2PO4, 0.4 mM Na2HPO4, 0.02 mM Fe-EDTA, 0.01 mM MnSO4, 0.007 mM CuSO4, 0.006 mM ZnSO4, 0.016 mM H3BO3, 0.001 mM Na2MoO4, and 15 g/L Agar for plant tissue, adjusted to pH 6.5 before autoclaving. The plants were grown at room temperature under continuous light for 4-5 days. The number of primary roots (PR), lateral roots (LR), root system length (RSL) and dry weight (DW) was then measured for all plants.

Assay [2] concerns rice atrichoblasts on lateral roots. Briefly: Calcium spiking (YC3.6 imaging) in rice atrichoblasts on lateral roots. Type of assay: cell-based, Oryza sativa cv Nipponbare. To be noted: for calcium oscillations: FIG. 1; for calcium oscillations, CO4 compared with CO8: 10^−8M and 10^−5 M, FIG. 2. The procedure:
Mycorrhizal induced calcium responses were measured as described previously (14). Transgenic Oryza sativa Nipponbare lines carrying Yellow Cameleon 3.6 (YC3.6) FRET-based calcium sensor was used to detect calcium spiking. YC3.6 was imaged on a Nikon Eclipse Ti inverted microscope (Nikon, Japan) equipped with an OptoLED Illuminator (model OptoLED, Cairn Research Ltd, UK). YC3.6 was excited at a wavelength of 455 nm using a royal blue LED and was captured with a charge-coupled device (CCD) camera (model RETIGA-SRV, Qimaging, Canada). Emitted fluorescence was separated by an image splitter with a dichroic mirror (model Optosplit II, Cairn Research Ltd, UK) and then passed through a fluorescence filter set. Images were collected every 5 seconds with 1-second exposure and analyzed using MetaFluor (Molecular Devices, Sunnyvale, Calif., USA).
For Bayesian Spectrum Analysis we computed the most probable periods in the time series following published procedures (15). Ten traces per treatment were analyzed. The joint distributions over the period were used to characterize each group. The plots show binned data to summarize the key periods. These ten traces per treatment were also analyzed for interspike intervals. The point of maximum height for each spike was computed after detrending of the time series using a moving average algorithm. The distances between these maxima gave rise to an interspike distribution. We used the non-parametric Mann-Whitney U-test, also known as the Mann-Whitney-Wilcoxon test (16, 17) to test for significant differences between the distributions.
Three traces per treatment, with approximately 80 spikes altogether, were analyzed for calcium spike characteristics. […] The traces were detrended using a moving average algorithm (18). We then characterized the spikes by the time required for each upward and downward phase. This was computed by the number of data points it took from the maximum spike height to the baseline fluctuation of the trace. The plots show the mean value of the upward and downward phases for each treatment, and the associated standard deviations are indicated by the error bars.
Calcium responses were assessed using a stably transformed line of Oryza sativa cv Nipponbare carrying YC3.6. […] To test an array of different LCO structures, we analyzed calcium spiking in response to Nod factor isolations from the broad host range rhizobial species, Rhizobium sp. NGR234, as well as Rhizobium tropici, in addition to the Myc-LCOs.

In the case of `CC(=O)N[C@H]1[C@H](O[C@H]2[C@H](O)[C@@H](NC(C)=O)C(O)O[C@@H]2CO)O[C@H](CO)[C@@H](O[C@@H]2O[C@H](CO)[C@@H](O[C@@H]3O[C@H](CO)[C@@H](O)[C@H](O)[C@H]3NC(C)=O)[C@H](O)[C@H]2NC(C)=O)[C@@H]1O` (some centres unmarked) [CO4, tetra-N-acetylchitotetraose], in the assay with corn (maize), the “Average Dry Weight” value is 0.1225, the “Average Root System Length” value was 23.76 and the “Average Seminal Roots” value came to 4.45. Further, in assay [1], the “Dry Weight” value worked out at 0.0206 g, the “Number of Lateral Roots” value is listed as 3.73 and the “Number of Primary Roots” value is recorded as 5.20. Further, the calcium oscillations result in assay [2] (10^−5M, rice large lateral roots, epidermal cells (atrichoblasts)) is listed as “strong calcium oscillations”. In assay [2], the “calcium oscillations, CO4 compared with CO8” value is listed as “respond equally well”. Further, in assay [2] (10^−8M, rice epidermal cells, robustness and number of responsive cells reduced), the calcium oscillations entry is “still showed calcium oscillations”.

As for `CC(=O)N[C@H]1[C@H](O[C@H]2[C@H](O)[C@@H](NC(C)=O)[C@H](O[C@H]3[C@H](O)[C@@H](NC(C)=O)[C@H](O[C@H]4[C@H](O)[C@@H](NC(C)=O)C(O)O[C@@H]4CO)O[C@@H]3CO)O[C@@H]2CO)O[C@H](CO)[C@@H](O[C@@H]2O[C@H](CO)[C@@H](O[C@@H]3O[C@H](CO)[C@@H](O[C@@H]4O[C@H](CO)[C@@H](O[C@@H]5O[C@H](CO)[C@@H](O)[C@H](O)[C@H]5NC(C)=O)[C@H](O)[C@H]4NC(C)=O)[C@H](O)[C@H]3NC(C)=O)[C@H](O)[C@H]2NC(C)=O)[C@@H]1O` (some centres unmarked) [CO8, octa-N-acetyl-chitooctaose], in the assay with corn (maize), the “Average Dry Weight” value came out at 0.1229, the “Average Root System Length” value is given as 21.42 and the “Average Seminal Roots” value turned out to be 4.75. In assay [1], the “Dry Weight” value is recorded as 0.0191 g, the “Number of Lateral Roots” value is on record as 3.00 and the “Number of Primary Roots” value turned out to be 5.20. In addition, in assay [1] (* significant at P < 0.05), the “Root System Length (cm)” value is 11.51 cm. Moreover, in assay [2], the “calcium oscillations, CO4 compared with CO8” value was “respond equally well”.
